Earlier results on 26 substances are cited in publication PMC8234620, “An Integrated Peptidomics and In Silico Approach to Identify Novel Anti-Diabetic Peptides in Parmigiano-Reggiano Cheese” (Biology, 2021).

The first series concerns angiotensin converting enzyme. To be noted: ref BIOPEP database and Milk Bioactive Peptides Database; cited from earlier work.
Turning to VLP, the “Bioactivity: ACE-inhibition” value is listed as “ACE-inhibition”. “LVYPFP (UniProt P02666 73-78, looked up, fragment) [β-casein f(58–63)]”: the “Bioactivity: ACE-inhibition” value is reported as “ACE-inhibition”. Consider “LNF (UniProt P02663 176-178, looked up, fragment) [αS2-casein f(161–163)]”, for which the “Bioactivity: ACE-inhibition” value was “ACE-inhibition”. As for “PGPIP (UniProt P02666 78-82, looked up, fragment) [β-casein f(63–67)]”, the “Bioactivity: ACE-inhibition” value is recorded as “ACE-inhibition”. Consider DVPSERYLG [αS1-casein f(85–93)], for which the “Bioactivity: ACE-inhibition” value is “ACE-inhibition”.

“DKIHP (UniProt P02666 62-66, looked up, fragment) [β-casein f(47–51)]”: the “Bioactivity: ACE-inhibition” value is “ACE-inhibition”. With “FGK (UniProt P02662 47-49, looked up, fragment) [αS1-casein f(32–34)]”, the “Bioactivity: ACE-inhibition” value was “ACE-inhibition”. “LEE (UniProt P02666 18-20, looked up, fragment) [β-casein f(3–5)]”: the “Bioactivity: ACE-inhibition” value was “ACE-inhibition”. In the case of “VEP (UniProt P02666 131-133, looked up, fragment) [β-casein f(116–118)]”, the “Bioactivity: ACE-inhibition” value is on record as “ACE-inhibition”. “FVAP (UniProt P02662 39-42, looked up, fragment) [αS1-casein f(24–27)]”: the “Bioactivity: ACE-inhibition” value is recorded as “ACE-inhibition”. Take “QGP (UniProt P02663 116-118, looked up, fragment) [αS2-casein f(101–103)]”: the “Bioactivity: ACE-inhibition” value was “ACE-inhibition”. As for “IVP (UniProt P02662 86-88, looked up, fragment) [αS1-casein f(71–73)]”, the “Bioactivity: ACE-inhibition” value is “ACE-inhibition”. With “VVPP (UniProt P02666 98-101, looked up, fragment) [β-casein f(83–86)]”, the “Bioactivity: ACE-inhibition” value is reported as “ACE-inhibition”. Take “DKIHPF (UniProt P02666 62-67, looked up, fragment) [β-casein f(47–52)]”: the “Bioactivity: ACE-inhibition” value is on record as “ACE-inhibition”. With “PFPE (UniProt P02662 42-45, looked up, fragment) [αS1-casein f(27–30)]”, the “Bioactivity: ACE-inhibition” value is reported as “ACE-inhibition”. Regarding “SLPQ (UniProt P02666 84-87, looked up, fragment) [β-casein f(69–72)]”, the “Bioactivity: ACE-inhibition” value is on record as “ACE-inhibition”.

In the case of “ENLLRF (UniProt P02662 33-38, looked up, fragment) [αS1-casein f(18–23)]”, the “Bioactivity: ACE-inhibition” value is given as “ACE-inhibition”.

For “YQEP (UniProt P02666 208-211, looked up, fragment) [β-casein f(193–196)]”, the “Bioactivity: ACE-inhibition” value was “ACE-inhibition”. Turning to “PLW (UniProt P02662 212-214, looked up, fragment) [αS1-casein f(197–199)]”, the “Bioactivity: ACE-inhibition” value was “ACE-inhibition”. As for “FFVAP (UniProt P02662 38-42, looked up, fragment) [αS1-casein f(23–27)]”, the “Bioactivity: ACE-inhibition” value is “ACE-inhibition”. For the substance “TVY (UniProt P02663 197-199, looked up, fragment) [αS2-casein f(182–184)]”, the “Bioactivity: ACE-inhibition” value is on record as “ACE-inhibition”. Consider LVYPFPGP [β-casein f(58–65)], for which the “Bioactivity: ACE-inhibition” value is given as “ACE-inhibition”.

System in a further series: not given
Further details: method as in BIOPEP database and Milk Bioactive Peptides Database. The following applies: ref BIOPEP database and Milk Bioactive Peptides Database; cited from earlier work.
Consider “PEL (UniProt P02662 162-164, looked up, fragment) [αS1-casein f(147–149)]”, for which the “Bioactivity: Antioxidant” value is “Antioxidant”.

For the substance QGPIVLNPWDQVKR [αS2-casein f(101–114)], the “Bioactivity: Antioxidant” value was “Antioxidant”. For the substance “RELEEL (UniProt P02666 16-21, looked up, fragment) [β-casein f(1–6)]”, the “Bioactivity: Antioxidant” value is on record as “Antioxidant”. As to “YQL (UniProt P02662 169-171, looked up, fragment) [αS1-casein f(154–156)]”, the “Bioactivity: Antioxidant” value is recorded as “Antioxidant”.
